# Measurements taken from patent US6689773B2, “Uracil substituted phenyl sulfamoyl carboxamides” (BASF Aktiengesellschaft, priority 2000, dated 2004).
# Assays:
# Type in all cases: in vivo
# [1] = test system: AMBEL, Ragweed, Common, Ambrosia artemiisifolia, L.; assay: Preemergence herbicidal evaluation (Example 148); details: rating scale 0-9, two to four weeks after treatment
# Description: (§1) The scale is based upon a visual observation of plant stand, vigor, malformation, size, chlorosis and overall plant appearance as compared with a control.
# (§2) The herbicidal activity of the compounds of the present invention was evaluated by the following tests wherein the seeds of a variety of monocotyledonous and dicotyledonous plants were separately mixed with potting soil and planted on top of approximately one inch of soil in separate pint cups. After planting, the cups were sprayed with the selected aqueous acetone solution containing test compound in sufficient quantity to provide the equivalent of about 0.125 to 0.250 kg per hectare of test compound per cup. The treated cups were then placed on greenhouse benches, watered and cared for in accordance with conventional greenhouse procedures. From two to four weeks after treatment, the tests were terminated and each cup was examined and rated according to the rating system provided in Example 94. When more than one test was performed for a given compound, the data were averaged.
# [2] = test system: DIGSA, Crabgrass, (Hairy) L, Digitaria sanguinalis, (L)Scop; assay: Preemergence herbicidal evaluation (Example 148); details: rating scale 0-9, two to four weeks after treatment
# Description: as §1, §2
# [3] = test system: GLXMA, Soybean, Glycine max, (L.) Merr.; assay: Preemergence herbicidal evaluation (Example 148); details: rating scale 0-9, two to four weeks after treatment
# Description: as §1, §2
# [4] = test system: ALOMY, Blackgrass, Alopecurus myosuroides; assay: Preemergence herbicidal evaluation (Example 148); details: rating scale 0-9, two to four weeks after treatment
# Description: as §1, §2
# [5] = test system: ECHCG, Barnyardgrass, Echinochloa crusgalli, (L.)Beau; assay: Preemergence herbicidal evaluation (Example 148); details: rating scale 0-9, two to four weeks after treatment
# Description: as §1, §2
# [6] = test system: IPOHE, Morningglory, Ivyleaf, Ipomoea hederacea, (L)Jacq.; assay: Preemergence herbicidal evaluation (Example 148); details: rating scale 0-9, two to four weeks after treatment
# Description: as §1, §2
# [7] = test system: XANST, Cocklebur, Xanthium strumariam; assay: Preemergence herbicidal evaluation (Example 148); details: rating scale 0-9, two to four weeks after treatment
# Description: as §1, §2
# [8] = test system: ABUTH, Velvetleaf, Abutilon theophrasti, Medic.; assay: Preemergence herbicidal evaluation (Example 148); details: rating scale 0-9, two to four weeks after treatment
# Description: as §1, §2
# [9] = test system: CHEAL, Lambsquarters, Chenopodium album, L. Common; assay: Preemergence herbicidal evaluation (Example 148); details: rating scale 0-9, two to four weeks after treatment
# Description: as §1, §2
# [10] = test system: SETVI, Green foxtail, Setaria viridis, (L.)Beau; assay: Preemergence herbicidal evaluation (Example 148); details: rating scale 0-9, two to four weeks after treatment
# Description: as §1, §2
# [11] = test system: TRZAW, Winter wheat, Tritium Aestivum, L. (Winter); assay: Preemergence herbicidal evaluation (Example 148); details: rating scale 0-9, two to four weeks after treatment
# Description: as §1, §2
# [12] = test system: ZEAMX, Field corn, Zea mays L.; assay: Preemergence herbicidal evaluation (Example 148); details: rating scale 0-9, two to four weeks after treatment
# Description: as §1, §2
# [13] = test system: AMBEL, Ragweed, Common, Ambrosia artemiisifolia, L.; assay: Postemergence herbicidal evaluation (Example 147); details: rating scale 0-9, two to three weeks after treatment
# Description: (§3) Seedling plants were grown in jiffy flats for about two weeks. The test compounds were dispersed in 80/20 acetone/water mixtures containing 1.0% SUN-IT®II, a methylated seed oil, in sufficient quantities to provide the equivalent of about 0.016 to 0.032 kg per hectare of active compound when applied to the plants through a spray nozzle operating at 40 psi for a predetermined time. After spraying, the plants were placed on greenhouse benches and were cared for in accordance with conventional greenhouse procedures. Approximately two to three weeks after treatment, the seedling plants were examined and rated according to the rating scale (0-9) set forth below. Where more than one test is involved for a given compound, the data are averaged. [table] The scale is based upon a visual observation of plant stand, vigor, malformation, size, chlorosis and overall plant appearance as compared with a control. Plant species employed in these evaluations are reported by header abbreviation, common name and scientific name. [table]
# [14] = test system: DIGSA, Crabgrass, (Hairy) L, Digitaria sanguinalis, (L)Scop; assay: Postemergence herbicidal evaluation (Example 147); details: rating scale 0-9, two to three weeks after treatment
# Description: as §3
# [15] = test system: GLXMA, Soybean, Glycine max, (L.) Merr.; assay: Postemergence herbicidal evaluation (Example 147); details: rating scale 0-9, two to three weeks after treatment
# Description: as §3
# [16] = test system: ALOMY, Blackgrass, Alopecurus myosuroides; assay: Postemergence herbicidal evaluation (Example 147); details: rating scale 0-9, two to three weeks after treatment
# Description: as §3
# [17] = test system: ECHCG, Barnyardgrass, Echinochloa crusgalli, (L.)Beau; assay: Postemergence herbicidal evaluation (Example 147); details: rating scale 0-9, two to three weeks after treatment
# Description: as §3
# [18] = test system: IPOHE, Morningglory, Ivyleaf, Ipomoea hederacea, (L)Jacq.; assay: Postemergence herbicidal evaluation (Example 147); details: rating scale 0-9, two to three weeks after treatment
# Description: as §3
# [19] = test system: ABUTH, Velvetleaf, Abutilon theophrasti, Medic.; assay: Postemergence herbicidal evaluation (Example 147); details: rating scale 0-9, two to three weeks after treatment
# Description: as §3
# [20] = test system: CHEAL, Lambsquarters, Chenopodium album, L. Common; assay: Postemergence herbicidal evaluation (Example 147); details: rating scale 0-9, two to three weeks after treatment
# Description: as §3
# [21] = test system: SETVI, Green foxtail, Setaria viridis, (L.)Beau; assay: Postemergence herbicidal evaluation (Example 147); details: rating scale 0-9, two to three weeks after treatment
# Description: as §3
# [22] = test system: TRZAW, Winter wheat, Tritium Aestivum, L. (Winter); assay: Postemergence herbicidal evaluation (Example 147); details: rating scale 0-9, two to three weeks after treatment
# Description: as §3
# [23] = test system: ZEAMX, Field corn, Zea mays L.; assay: Postemergence herbicidal evaluation (Example 147); details: rating scale 0-9, two to three weeks after treatment
# Description: as §3
smiles,measurement,setting,value
COc1cccc(CN(C)S(=O)(=O)NC(=O)c2cc(-n3c(=O)cc(C(F)(F)F)n(C)c3=O)c(F)cc2Cl)c1 [Example 70],Preemergence herbicidal rating AMBEL,[1]; rate 0.125 kg/ha,9.0
same,Preemergence herbicidal rating AMBEL,[1]; rate 0.25 kg/ha,9.0
same,Preemergence herbicidal rating DIGSA,[2]; rate 0.125 kg/ha,2.0
same,Preemergence herbicidal rating DIGSA,[2]; rate 0.25 kg/ha,5.0
same,Preemergence herbicidal rating GLXMA,[3]; rate 0.125 kg/ha,1.0
same,Preemergence herbicidal rating GLXMA,[3]; rate 0.25 kg/ha,3.0
same,Preemergence herbicidal rating ALMOY,[4]; rate 0.125 kg/ha,0.0
same,Preemergence herbicidal rating ALMOY,[4]; rate 0.25 kg/ha,0.0
same,Preemergence herbicidal rating ECHCG,[5]; rate 0.125 kg/ha,2.0
same,Preemergence herbicidal rating ECHCG,[5]; rate 0.25 kg/ha,7.0
same,Preemergence herbicidal rating IPOHE,[6]; rate 0.125 kg/ha,9.0
same,Preemergence herbicidal rating IPOHE,[6]; rate 0.25 kg/ha,9.0
same,Preemergence herbicidal rating XANST,[7]; rate 0.125 kg/ha,8.0
same,Preemergence herbicidal rating XANST,[7]; rate 0.25 kg/ha,9.0
same,Preemergence herbicidal rating ABUTH,[8]; rate 0.125 kg/ha,9.0
same,Preemergence herbicidal rating ABUTH,[8]; rate 0.25 kg/ha,9.0
same,Preemergence herbicidal rating CHEAL,[9]; rate 0.125 kg/ha,8.0
same,Preemergence herbicidal rating CHEAL,[9]; rate 0.25 kg/ha,9.0
same,Preemergence herbicidal rating SETVI,[10]; rate 0.125 kg/ha,3.0
same,Preemergence herbicidal rating SETVI,[10]; rate 0.25 kg/ha,5.0
same,Preemergence herbicidal rating TRZAW,[11]; rate 0.125 kg/ha,0.0
same,Preemergence herbicidal rating TRZAW,[11]; rate 0.25 kg/ha,1.0
same,Preemergence herbicidal rating ZEAMX,[12]; rate 0.125 kg/ha,0.0
same,Preemergence herbicidal rating ZEAMX,[12]; rate 0.25 kg/ha,0.0
same,Postemergence herbicidal rating AMBEL,[13]; rate 0.016 kg/ha,5.0
same,Postemergence herbicidal rating AMBEL,[13]; rate 0.032 kg/ha,7.0
same,Postemergence herbicidal rating DIGSA,[14]; rate 0.016 kg/ha,2.0
same,Postemergence herbicidal rating DIGSA,[14]; rate 0.032 kg/ha,3.0
same,Postemergence herbicidal rating GLXMA,[15]; rate 0.016 kg/ha,6.5
same,Postemergence herbicidal rating GLXMA,[15]; rate 0.032 kg/ha,7.5
same,Postemergence herbicidal rating ALMOY,[16]; rate 0.016 kg/ha,1.0
same,Postemergence herbicidal rating ALMOY,[16]; rate 0.032 kg/ha,1.0
same,Postemergence herbicidal rating ECHCG,[17]; rate 0.016 kg/ha,4.0
same,Postemergence herbicidal rating ECHCG,[17]; rate 0.032 kg/ha,8.0
same,Postemergence herbicidal rating IPOHE,[18]; rate 0.016 kg/ha,9.0
same,Postemergence herbicidal rating IPOHE,[18]; rate 0.032 kg/ha,9.0
same,Postemergence herbicidal rating ABUTH,[19]; rate 0.016 kg/ha,9.0
same,Postemergence herbicidal rating ABUTH,[19]; rate 0.032 kg/ha,9.0
same,Postemergence herbicidal rating CHEAL,[20]; rate 0.016 kg/ha,6.0
same,Postemergence herbicidal rating CHEAL,[20]; rate 0.032 kg/ha,7.0
same,Postemergence herbicidal rating SETVI,[21]; rate 0.016 kg/ha,4.0
same,Postemergence herbicidal rating SETVI,[21]; rate 0.032 kg/ha,5.0
same,Postemergence herbicidal rating TRZAW,[22]; rate 0.016 kg/ha,4.5
same,Postemergence herbicidal rating TRZAW,[22]; rate 0.032 kg/ha,5.0
same,Postemergence herbicidal rating ZEAMX,[23]; rate 0.016 kg/ha,7.0
same,Postemergence herbicidal rating ZEAMX,[23]; rate 0.032 kg/ha,7.0
